# In US20250188076A1, “SOLID STATE FORMS OF TOLEBRUTINIB AND OF TOLEBRUTINIB SALTS” (TEVA PHARMACEUTICAL INTERNATIONAL GMBH, priority 2022, published 2025):
# Assay: Solubility comparison in water and aqueous acetate buffer at pH 4.5
substance,measurement,value
Tolebrutinib [Tolebrutinib Form CSI],solubility,< 200 µg/mL
